The assay has as its target T1, Glycogen phosphorylase, muscle form (Oryctolagus cuniculus, UniProt P00489).
T1 sequence (P00489 whole entry): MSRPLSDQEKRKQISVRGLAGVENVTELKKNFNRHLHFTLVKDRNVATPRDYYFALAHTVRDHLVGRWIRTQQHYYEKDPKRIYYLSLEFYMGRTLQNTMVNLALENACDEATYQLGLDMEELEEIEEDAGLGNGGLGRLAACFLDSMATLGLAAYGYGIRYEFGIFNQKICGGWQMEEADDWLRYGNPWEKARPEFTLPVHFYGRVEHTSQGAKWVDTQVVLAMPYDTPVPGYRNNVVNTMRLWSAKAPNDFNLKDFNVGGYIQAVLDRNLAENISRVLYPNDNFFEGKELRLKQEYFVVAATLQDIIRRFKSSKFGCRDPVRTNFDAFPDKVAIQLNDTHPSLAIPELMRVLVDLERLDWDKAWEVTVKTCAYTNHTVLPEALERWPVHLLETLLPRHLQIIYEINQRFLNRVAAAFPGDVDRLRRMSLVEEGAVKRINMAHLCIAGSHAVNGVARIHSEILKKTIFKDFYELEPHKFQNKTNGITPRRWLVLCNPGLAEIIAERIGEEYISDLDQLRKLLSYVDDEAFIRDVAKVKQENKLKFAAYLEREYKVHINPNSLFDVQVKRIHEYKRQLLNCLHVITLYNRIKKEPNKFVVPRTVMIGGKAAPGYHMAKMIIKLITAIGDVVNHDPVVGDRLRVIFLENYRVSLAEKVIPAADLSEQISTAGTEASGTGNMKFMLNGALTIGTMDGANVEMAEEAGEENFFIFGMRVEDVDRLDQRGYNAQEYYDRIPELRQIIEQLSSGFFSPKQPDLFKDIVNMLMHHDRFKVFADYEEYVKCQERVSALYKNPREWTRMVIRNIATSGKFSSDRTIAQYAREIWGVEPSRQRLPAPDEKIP
Nature of the assay: Inhibition of rabbit muscle glycogen phosphorylase A assessed as release of phosphate from glucose-1-phosphate after 25 mins by microplate reader based method.

Structures are written as SMILES.

The record followed here is ChEMBL document CHEMBL1795338, “Identification of pentacyclic triterpenes derivatives as potent inhibitors against glycogen phosphorylase based on 3D-QSAR studies” (Eur J Med Chem, 2011).

The term IC50 denotes the concentration that gives 50% inhibition. With `CC1(C)CC[C@]2(C(=O)O)CC[C@]3(C)C(=CC[C@@H]4[C@@]5(C)CC[C@H](OC(=O)CCC(=O)O)C(C)(C)[C@@H]5CC[C@]43C)[C@@H]2C1` [OLEANOLIC ACID 3-O-SUCCINATE], the IC50 is 34.3 µM.
